From patent US20110178105A1, “CLINICAL BENEFITS OF EICOSAPENTAENOIC ACID IN HUMANS” (E.I. DU PONT DE NEMOURS AND COMPANY, priority 2010, published 2011)
Where “and” joins values, the source holds several entries; their conditions need not be identical. Equal entries are not always repeated.

Columns and labels:
[1] = Clinical study: fasting serum lipids, lipoproteins and apolipoproteins (automated analyzer); assay type: in vivo, human; details: 6 weeks; for HDL C, 6-Week Change (%) / HDL C, Final / LDL C, Final / Lp(a), 6-Week Change (%) / Lp(a), Final / Total Cholesterol, 6-Week Change (%) / Total Cholesterol, Final / Triglyceride, 6-Week Change (%) / Triglyceride, Final / apoA-I, 6-Week Change (%) / apoA-I, Final / apoB, 6-Week Change (%) / apoB, Final / sdLDL, 6-Week Change (%) / sdLDL, Final / LDL C, 6-Week Change (%): Fast
Description: At visit 2, subjects were again asked to fast for 12 hours, and information about subject characteristics including all vital signs, recent illness or hospitalization, medication and supplement use, and diet information was again obtained. Subjects then had blood drawn for a metabolic profile and complete blood counts. […] Subjects (30 in each group) were then randomized equally for 6 weeks to one of four treatment arms: 1) olive oil placebo; 2) 600 mg of EPA/day; 3) 1800 mg of EPA/day; and, 4) 600 mg of DHA/day. At one week and three weeks after beginning the supplements, all study subjects were contacted by telephone and asked about any adverse effects and about their compliance, and the information on their calendars with regard to capsule use and fish intake. They were also asked about whether they had experienced any fishy aftertaste or odor, and if so, how frequent were these episodes, and how unpleasant were they? The entire process as listed above was repeated after study subjects were on the study capsules for 6 weeks at the time of the final visit. Compliance and adverse events were assessed by telephone at weeks 1 and 3 by telephone and at week 6 by questionnaire and capsule count. Over 42 days, subjects were expected to have consumed a total of 252 capsules. Compliance was calculated as a percentage of consumed capsule count/expected capsule count based on the number of days the subject was in the study. All subjects were asked to stay on their capsules until they come in for their final visit. Compliance in all participants who completed the study was based on capsule count was in excess of 85%, mean 96%.
(§1) The following laboratory measurements were carried out on an automated analyzer (Roche Diagnostics, Indianapolis, Ind.) on samples obtained in the fasting state at the randomization visit, and the final visits using frozen aliquots of serum stored at −80 degrees Celsius: 1) total cholesterol; 2) triglycerides; 3) direct high density lipoprotein [“HDL”] cholesterol; 4) direct low density lipoprotein [“LDL”] cholesterol; 5) direct small dense LDL cholesterol; 6) apolipoprotein [“apo”] B; 7) apoA-I; 8) lipoprotein (a); 9) fibrinogen; 10) high sensitivity C reactive protein [“hs-CRP”]; 11) lipoprotein associated phospholipase A2 [“Lp-PLA2”]; and, 12) insulin as previously described. See, McNamara, J. R. and Schaefer, E. J., Clin. Chim. Acta, 166:1-8 (1987); Okada, M. et al., J. Lab. Clin. Med., 132:195-201 (1998); Hirano, T. et al., J. Lipid Res., 44:2193-2201 (2003); Ai, M. et al., Am. J. Cardiol., 101:315-318 (2008); Ingelsson, E. et al., JAMA, 298:776-785 (2007); Jenner, J. L. et al., Circulation, 87:1135-1141 (1993); Schaefer, E. J. et al., Am. J. Cardiol., 95:1025-1032 (2005); McNamara, J. R. et al., Atherosclerosis, 154:229-236 (2001).
On the samples obtained 4 hours after the fat-rich meal, total cholesterol, triglycerides, direct HDL cholesterol, and direct LDL cholesterol were measured. Direct LDL cholesterol and small dense LDL cholesterol levels were measured using kits obtained from Denka-Seiken Corporation, (Tokyo, Japan), as previously described (Okada, M. et al., supra; Hirano, T. et al., supra; Ai, M. et al., supra). Remnant lipoprotein cholesterol was measured using kits obtained from Polymedco (Cortland Manor, N.Y.) and manufactured by Otsuka Corporation (Tokyo, Japan) as previously described (McNamara, J. R. et al., Atherosclerosis, supra). All lipid assays are standardized through the Lipid Research Clinics standardization program of the Centers for Disease Control (Atlanta, Ga.). All assays had between and within run coefficients of variation of <5%. Serum fatty acid profiles were analyzed by Nutrasource Diagnostics (Guelph, Ontario, Canada).

[2] = Clinical study: inflammation markers, adhesion molecules, adiponectin (hsCRP, IL-6, sICAM, VCAM); assay type: in vivo, human; details: Fast, 6 weeks
Description: as §1
Plasma apoB-48 was measured with an enzyme linked immunosorbent assay obtained from the Shibayagi Company (Gunma, Japan) (Kinoshita, M. et al., Clin. Chim. Acta, 351:115-120 (2005); Otokozawa, S. et al., Atherosclerosis, 205:197-201 (2009); Otokozawa, S. et al., Metabolism, 58(11): 1536-1542 (2009)). ICAM1 and VCAM1, interleukin-6 or IL-6, and adiponectin were all measured using commercially available enzyme linked immunoassays [“ELISA”] obtained from the R & D Corporation (Minneapolis, Minn.). All these assays have within and between run coefficients of variation of less than 10%.

## CCC=CCC=CCC=CCC=CCC=CC/C=C\CCC(=O)O [DHA, cis-4,7, 10, 13, 16, 19-docosahexaenoic acid, reference compound]
[1]; DHA 600 mg (n = 28)
  HDL C, 6-Week Change (%): +1.3 ± 14.7%
  HDL C, Final: 62.0 ± 23.7 mg/dL
  LDL C, Final: 130.3 ± 37.2 mg/dL
  Lp(a), 6-Week Change (%): +27.7 ± 156.3%
  Lp(a), Final: 40.0 ± 40.1 mg/dL
  Total Cholesterol, 6-Week Change (%): +2.9 ± 12.0%
  Total Cholesterol, Final: 216.1 ± 44.1 mg/dL
  Triglyceride, 6-Week Change (%): −5.8 ± 30.4%
  Triglyceride, Final: 104.4 ± 58.0 mg/dL
  apoA-I, 6-Week Change (%): −2.0 ± 10.5%
  apoA-I, Final: 177.5 ± 43.0 mg/dL
  apoB, 6-Week Change (%): +6.0 ± 15.6%
  apoB, Final: 97.1 ± 25.7 mg/dL
  sdLDL, 6-Week Change (%): −2.2 ± 24.7%
  sdLDL, Final: 31.1 ± 13.3 mg/dL
[2]; DHA 600 mg (n = 28)
  Adiponectin, 6-Week Change (%): −6.7 ± 19.8%
  Adiponectin, Final: 11380.0 ± 14772.6 ng/mL
  IL-6, 6-Week Change (%): +5.7 ± 50.3%
  IL-6, Final: 1.6 ± 0.9 pg/mL
  VCAM, 6-Week Change (%): +0.2 ± 11.0%
  VCAM, Final: 673.0 ± 197.4 ng/mL
  hsCRP, 6-Week Change (%): +27.1 ± 82.3%
  hsCRP, Final: 3.4 ± 4.5 mg/L
  sICAM, 6-Week Change (%): +0.7 ± 18.0%
  sICAM, Final: 240.2 ± 114.1 ng/mL

## CCC=CCC=CCC=CCC=CC/C=C\CCCC(=O)O [EPA, cis-5,8, 11, 14, 17-eicosapentaenoic acid]
[1]; FIG. 5
  LDL cholesterol levels: did not increase
[1]; EPA 600 mg (n = 27)
  HDL C, 6-Week Change (%): +0.4 ± 13.7%
  HDL C, Final: 57.9 ± 18.0 mg/dL
  LDL C, 6-Week Change (%): −2.5 ± 11.7%
  LDL C, Final: 118.1 ± 35.8 mg/dL
  Lp(a), 6-Week Change (%): +18.3 ± 84.8%
  Lp(a), Final: 32.8 ± 32.4 mg/dL
  Total Cholesterol, 6-Week Change (%): −1.8 ± 9.5%
  Total Cholesterol, Final: 199.2 ± 48.7 mg/dL
  Triglyceride, 6-Week Change (%): −1.3 ± 31.6%
  Triglyceride, Final: 107.0 ± 43.2 mg/dL
  apoA-I, 6-Week Change (%): −1.3 ± 12.4%
  apoA-I, Final: 173.6 ± 36.3 mg/dL
  apoB, 6-Week Change (%): −2.3 ± 10.9%
  apoB, Final: 90.1 ± 22.8 mg/dL
  sdLDL, 6-Week Change (%): −7.3 ± 18.2%
  sdLDL, Final: 29.5 ± 12.0 mg/dL
[1]; EPA 600 mg/day, p=0.0087
  decrease versus baseline in small dense LDL cholesterol: 7.3%
[1]; EPA 1800 mg (n = 29)
  HDL C, 6-Week Change (%): +2.5 ± 12.7%
  HDL C, Final: 59.9 ± 15.7 mg/dL
  LDL C, 6-Week Change (%): −2.0 ± 13.7%
  LDL C, Final: 120.6 ± 26.8 mg/dL
  Lp(a), 6-Week Change (%): +5.1 ± 26.1%
  Lp(a), Final: 32.2 ± 23.6 mg/dL
  Total Cholesterol, 6-Week Change (%): −1.7 ± 11.2%
  Total Cholesterol, Final: 201.1 ± 35.3 mg/dL
  Triglyceride, 6-Week Change (%): −5.0% and −5.0 ± 28.6%
  Triglyceride, Final: 102.8 ± 82.8 mg/dL
  apoA-I, 6-Week Change (%): +0.4 ± 10.8%
  apoA-I, Final: 173.1 ± 31.3 mg/dL
  apoB, 6-Week Change (%): −1.6 ± 12.2%
  apoB, Final: 91.7 ± 19.1 mg/dL
  sdLDL, 6-Week Change (%): −8.8 ± 19.5%
  sdLDL, Final: 30.6 ± 9.4 mg/dL
[1]; EPA 1800 mg/day, p=0.018
  decrease versus baseline in small dense LDL cholesterol: 8.8%
[2]; EPA 600 mg (n = 27)
  Adiponectin, 6-Week Change (%): 11.3 ± 31.4%
  Adiponectin, Final: 9501.4 ± 5894.3 ng/mL
  IL-6, 6-Week Change (%): +35.3 ± 126.1%
  IL-6, Final: 2.0 ± 1.8 pg/mL
  VCAM, 6-Week Change (%): +2.2 ± 12.6%
  VCAM, Final: 722.8 ± 178.0 ng/mL
  hsCRP, 6-Week Change (%): +115.6 ± 508.4%
  hsCRP, Final: 3.3 ± 4.9 mg/L
  sICAM, 6-Week Change (%): +3.2 ± 19.0%
  sICAM, Final: 232.4 ± 62.7 ng/mL
[2]; EPA 1800 mg (n = 29)
  Adiponectin, 6-Week Change (%): 16.4 ± 82.6%
  Adiponectin, Final: 17578.6 ± 45606.9 ng/mL
  IL-6, 6-Week Change (%): +3.1 ± 50.1%
  IL-6, Final: 1.3 ± 0.7 pg/mL
  VCAM, 6-Week Change (%): +1.0 ± 13.5%
  VCAM, Final: 607.5 ± 125.7 ng/mL
  hsCRP, 6-Week Change (%): +26.0 ± 113.0%
  hsCRP, Final: 2.7 ± 4.7 mg/L
  sICAM, 6-Week Change (%): −2.6 ± 17.1%
  sICAM, Final: 206.9 ± 50.5 ng/mL
